From patent US20120115877A1, “Facially Amphiphilic Compounds, Compositions, And Uses Thereof In Treating Cancer” (POLYMEDIX, INC., priority 2010, published 2012)

Columns and labels:
Format in all cases: cell-based, human
Conditions in all cases: 10 μM
MDA-MB-468 = experiment: NCI-60 screen, Breast Cancer
Method: (§1) Several compounds were tested at single concentrations (10 μM) against 59 different human tumor cell lines, representing leukemia, melanoma and cancers of the lung, colon, brain, ovary, breast, prostate, and kidney (see, Table 3). The human tumor cell lines of the cancer screening panel were grown in RPMI 1640 medium containing 5% fetal bovine serum and 2 mM L-glutamine. For a typical screening experiment, cells were inoculated into 96 well microtiter plates in 100 μL at plating densities ranging from 5,000 to 40,000 cells/well depending on the doubling time of individual cell lines. After cell inoculation, the microtiter plates were incubated at 37° C., 5% CO2, 95% air and 100% relative humidity for 24 hours prior to addition of the compounds.
(§2) After 24 hours, two plates of each cell line were fixed in situ with TCA, to represent a measurement of the cell population for each cell line at the time of drug addition (Tz). Compounds were solubilized in dimethyl sulfoxide at 400-fold the desired final maximum test concentration and stored frozen prior to use. At the time of drug addition, an aliquot of frozen concentrate was thawed and diluted to twice the desired final maximum test concentration with complete medium containing 50 μg/ml gentamicin. Additional four, 10-fold or ½ log serial dilutions were made to provide a total of five compound concentrations plus control. Aliquots of 100 μl of these different drug dilutions were added to the appropriate microtiter wells already containing 100 μl of medium, resulting in the required final compound concentrations.
(§3) Following drug addition, the plates were incubated for an additional 48 hours at 37° C., 5% CO2, 95% air, and 100% relative humidity. For adherent cells, the assay was terminated by the addition of cold TCA. Cells were fixed in situ by the gentle addition of 50 μl of cold 50% (w/v) TCA (final concentration, 10% TCA) and incubated for 60 minutes at 4° C. The supernatant was discarded, and the plates were washed five times with tap water and air dried. Sulforhodamine B (SRB) solution (100 μl) at 0.4% (w/v) in 1% acetic acid was added to each well, and plates were incubated for 10 minutes at room temperature. After staining, unbound dye was removed by washing five times with 1% acetic acid and the plates were air dried. Bound stain was subsequently solubilized with 10 mM trizma base, and the absorbance was read on an automated plate reader at a wavelength of 515 nm. For suspension cells, the methodology was the same except that the assay was terminated by fixing settled cells at the bottom of the wells by gently adding 50 μl of 80% TCA (final concentration, 16% TCA). Using the seven absorbance measurements (time zero, (Tz), control growth, (C), and test growth in the presence of drug at the five concentration levels (Ti)), the percentage growth was calculated at each of the compound concentrations levels. Percentage growth inhibition was calculated as:
(§4) [(Ti−Tz)/(C−Tz)]×100 for concentrations for which Ti>/=Tz
(§5) [(Ti−Tz)/Tz]×100 for concentrations for which Ti<Tz.
(§6) Three dose response parameters were calculated for each compound. Growth inhibition of 50% (GI50) was calculated from [(Ti−Tz)/(C−Tz)]×100=50, which is the compound concentration resulting in a 50% reduction in the net protein increase (as measured by SRB staining) in control cells during the compound incubation. The compound concentration resulting in total growth inhibition (TGI) was calculated from Ti=Tz. The LC50 (concentration of compound resulting in a 50% reduction in the measured protein at the end of the compound treatment as compared to that at the beginning) indicating a net loss of cells following treatment was calculated from [(Ti−Tz)/Tz]×100=−50. Values were calculated for each of these three parameters if the level of activity was reached; however, if the effect was not reached or was exceeded, the value for that parameter was expressed as greater or less than the maximum or minimum concentration tested.

MCF7 = experiment: NCI-60 screen, Breast Cancer
Method: as §1, §2, §3, §4, §5, §6

T-47D = experiment: NCI-60 screen, Breast Cancer
Method: as §1, §2, §3, §4, §5, §6

HT29 = experiment: NCI-60 screen, Colon Cancer
Method: as §1, §2, §3, §4, §5, §6

HCT-15 = experiment: NCI-60 screen, Colon Cancer
Method: as §1, §2, §3, §4, §5, §6

HCT-116 = experiment: NCI-60 screen, Colon Cancer
Method: as §1, §2, §3, §4, §5, §6

KM12 = experiment: NCI-60 screen, Colon Cancer
Method: as §1, §2, §3, §4, §5, §6

COLO 205 = experiment: NCI-60 screen, Colon Cancer
Method: as §1, §2, §3, §4, §5, §6

HCC-2998 = experiment: NCI-60 screen, Colon Cancer
Method: as §1, §2, §3, §4, §5, §6

SW-620 = experiment: NCI-60 screen, Colon Cancer
Method: as §1, §2, §3, §4, §5, §6

PC-3 = experiment: NCI-60 screen, Prostate Cancer
Method: as §1, §2, §3, §4, §5, §6

DU-145 = experiment: NCI-60 screen, Prostate Cancer
Method: as §1, §2, §3, §4, §5, §6

U251 = experiment: NCI-60 screen, CNS Cancer
Method: as §1, §2, §3, §4, §5, §6

SNB-19 = experiment: NCI-60 screen, CNS Cancer
Method: as §1, §2, §3, §4, §5, §6

SNB-75 = experiment: NCI-60 screen, CNS Cancer
Method: as §1, §2, §3, §4, §5, §6

SF-268 = experiment: NCI-60 screen, CNS Cancer
Method: as §1, §2, §3, §4, §5, §6

SF-295 = experiment: NCI-60 screen, CNS Cancer
Method: as §1, §2, §3, §4, §5, §6

EKVX = experiment: NCI-60 screen, Non-Small Cell Lung Cancer
Method: as §1, §2, §3, §4, §5, §6

HOP-92 = experiment: NCI-60 screen, Non-Small Cell Lung Cancer
Method: as §1, §2, §3, §4, §5, §6

NCI-H460 = experiment: NCI-60 screen, Non-Small Cell Lung Cancer
Method: as §1, §2, §3, §4, §5, §6

A549/ATCC = experiment: NCI-60 screen, Non-Small Cell Lung Cancer
Method: as §1, §2, §3, §4, §5, §6

NCI-H226 = experiment: NCI-60 screen, Non-Small Cell Lung Cancer
Method: as §1, §2, §3, §4, §5, §6

NCI-H23 = experiment: NCI-60 screen, Non-Small Cell Lung Cancer
Method: as §1, §2, §3, §4, §5, §6

HOP-62 = experiment: NCI-60 screen, Non-Small Cell Lung Cancer
Method: as §1, §2, §3, §4, §5, §6

NCI-H322M = experiment: NCI-60 screen, Non-Small Cell Lung Cancer
Method: as §1, §2, §3, §4, §5, §6

NCI-H522 = experiment: NCI-60 screen, Non-Small Cell Lung Cancer
Method: as §1, §2, §3, §4, §5, §6

SF-539 = experiment: NCI-60 screen, CNS Cancer
Method: as §1, §2, §3, §4, §5, §6

NCCc1cc(Br)cc(C#Cc2cccc(C#Cc3cc(Br)cc(CCN)c3)c2)c1 [Compound A]
Percent Growth (MDA-MB-468): −61.5% | Percent Growth (MCF7): −89.84% | Percent Growth (T-47D): 31.82% | Percent Growth (HT29): −89.31% | Percent Growth (HCT-15): 11.61% | Percent Growth (HCT-116): −45.86% | Percent Growth (KM12): −87.53% | Percent Growth (COLO 205): 1.203% | Percent Growth (HCC-2998): 54.09% | Percent Growth (SW-620): −73.58% | Percent Growth (PC-3): 45.26% | Percent Growth (DU-145): −83.92% | Percent Growth (U251): −64.65% | Percent Growth (SNB-19): 27.06% | Percent Growth (SNB-75): −2.087% | Percent Growth (SF-268): 61.55% | Percent Growth (SF-295): 3.17% | Percent Growth (EKVX): 62.48% | Percent Growth (HOP-92): 73.03% | Percent Growth (NCI-H460): −49.11% | Percent Growth (A549/ATCC): −15.97% | Percent Growth (NCI-H226): 108.9% | Percent Growth (NCI-H23): 94.81% | Percent Growth (HOP-62): 21.99% | Percent Growth (NCI-H322M): 53% | Percent Growth (NCI-H522): −78.21%

N=C(N)NCCCCC(=O)Nc1cc(C(F)(F)F)cc(NC(=O)Nc2ccc(NC(=O)Nc3cc(C(F)(F)F)cc(NC(=O)CCCCNC(=N)N)c3OC3CCNC3)cc2)c1OC1CCNC1 (stereo not drawn) [Compound B]
Percent Growth (MDA-MB-468): 43.02% | Percent Growth (MCF7): 44.41% | Percent Growth (T-47D): 3.786% | Percent Growth (HT29): 59.66% | Percent Growth (HCT-15): 61.39% | Percent Growth (HCT-116): 45.1% | Percent Growth (KM12): 24.16% | Percent Growth (COLO 205): 55.41% | Percent Growth (HCC-2998): 75.82% | Percent Growth (SW-620): 69.71% | Percent Growth (PC-3): 59.59% | Percent Growth (DU-145): 70.36% | Percent Growth (SF-539): 30.8% | Percent Growth (U251): 37.71% | Percent Growth (SNB-19): 49.16% | Percent Growth (SNB-75): 19.48% | Percent Growth (SF-268): 49.93% | Percent Growth (SF-295): 38.86% | Percent Growth (EKVX): 61.92% | Percent Growth (HOP-92): 81.51% | Percent Growth (NCI-H460): 50.72% | Percent Growth (A549/ATCC): 49.78% | Percent Growth (NCI-H226): 51.21% | Percent Growth (NCI-H23): 77.57% | Percent Growth (HOP-62): 23.47% | Percent Growth (NCI-H322M): 80.76% | Percent Growth (NCI-H522): −11.87%

N=C(N)NCCCCC(=O)Nc1cc(C(F)(F)F)cc(NC(=O)c2cc(C(=O)Nc3cc(C(F)(F)F)cc(NC(=O)CCCCNC(=N)N)c3SCCN)ncn2)c1SCCN [Compound C]
Percent Growth (MDA-MB-468): −53.05% | Percent Growth (MCF7): 10.27% | Percent Growth (T-47D): 14.59% | Percent Growth (HT29): 17.03% | Percent Growth (HCT-15): 33.27% | Percent Growth (HCT-116): 37.88% | Percent Growth (KM12): −39.48% | Percent Growth (COLO 205): −73.2% | Percent Growth (HCC-2998): 54.2% | Percent Growth (SW-620): 34.39% | Percent Growth (PC-3): 77.68% | Percent Growth (DU-145): 62.89% | Percent Growth (SF-539): 70.3% | Percent Growth (U251): 31.28% | Percent Growth (SNB-19): 47.25% | Percent Growth (SNB-75): 22.47% | Percent Growth (SF-268): 53.24% | Percent Growth (SF-295): 39.81% | Percent Growth (EKVX): 59.82% | Percent Growth (HOP-92): 93.99% | Percent Growth (NCI-H460): 28.72% | Percent Growth (A549/ATCC): 37.26% | Percent Growth (NCI-H226): 63.82% | Percent Growth (NCI-H23): 80.24% | Percent Growth (HOP-62): 37.78% | Percent Growth (NCI-H322M): 83.13% | Percent Growth (NCI-H522): −26.87%

NCCCc1cccc(-c2ccc3oc4ccc(-c5cccc(CCCN)c5)cc4c3c2)c1 [Compound G]
Percent Growth (MDA-MB-468): −3.51% | Percent Growth (MCF7): −44.29% | Percent Growth (T-47D): 80.44% | Percent Growth (HT29): −51.14% | Percent Growth (HCT-15): 49.71% | Percent Growth (HCT-116): −37.99% | Percent Growth (KM12): 14.01% | Percent Growth (COLO 205): 26.37% | Percent Growth (HCC-2998): 81.22% | Percent Growth (SW-620): −7.997% | Percent Growth (PC-3): 54.99% | Percent Growth (DU-145): −23.65% | Percent Growth (SF-539): 86.73% | Percent Growth (SNB-19): 88.57% | Percent Growth (SNB-75): 66.47% | Percent Growth (SF-268): 75.18% | Percent Growth (SF-295): 65.4% | Percent Growth (EKVX): 81.69% | Percent Growth (HOP-92): 61.6% | Percent Growth (NCI-H460): 23.91% | Percent Growth (NCI-H226): 104.4% | Percent Growth (NCI-H23): 99.38% | Percent Growth (HOP-62): 72.69% | Percent Growth (NCI-H322M): 108.3% | Percent Growth (NCI-H522): 69.45%
